Experiments:
Acetylcholinesterase = biological target: T1, Acetylcholinesterase (Rattus norvegicus, UniProt P37136); assay: In vitro inhibition of Acetylcholinesterase from rat striatum
T1 sequence (P37136 whole entry): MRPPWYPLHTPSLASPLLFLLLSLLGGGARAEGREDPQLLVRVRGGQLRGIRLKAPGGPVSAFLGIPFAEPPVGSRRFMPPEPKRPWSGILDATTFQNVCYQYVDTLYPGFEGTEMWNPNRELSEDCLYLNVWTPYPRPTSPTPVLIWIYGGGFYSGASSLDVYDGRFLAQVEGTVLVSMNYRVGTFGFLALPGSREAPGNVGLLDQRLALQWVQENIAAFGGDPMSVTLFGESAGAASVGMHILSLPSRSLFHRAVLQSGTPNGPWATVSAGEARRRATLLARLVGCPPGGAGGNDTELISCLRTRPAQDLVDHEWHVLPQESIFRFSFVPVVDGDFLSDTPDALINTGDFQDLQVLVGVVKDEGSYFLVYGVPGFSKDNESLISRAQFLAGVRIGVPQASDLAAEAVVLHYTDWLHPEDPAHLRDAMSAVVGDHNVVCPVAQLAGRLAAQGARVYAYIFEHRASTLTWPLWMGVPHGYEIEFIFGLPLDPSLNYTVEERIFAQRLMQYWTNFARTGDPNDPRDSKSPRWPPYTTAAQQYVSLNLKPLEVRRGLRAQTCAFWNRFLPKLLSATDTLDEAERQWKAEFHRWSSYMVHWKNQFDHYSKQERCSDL

[1] = biological target: T2, Adrenergic receptor alpha-2 (Rattus norvegicus, UniProt P22086+P19328+P22909); assay: Compound was tested for inhibition of [3H]clonidine against Alpha-2 adrenergic receptor from rat cortical membranes using in vitro adrenergic receptor binding assay.; format: cell membranes, Membrane
T2 sequence (P22086 whole entry): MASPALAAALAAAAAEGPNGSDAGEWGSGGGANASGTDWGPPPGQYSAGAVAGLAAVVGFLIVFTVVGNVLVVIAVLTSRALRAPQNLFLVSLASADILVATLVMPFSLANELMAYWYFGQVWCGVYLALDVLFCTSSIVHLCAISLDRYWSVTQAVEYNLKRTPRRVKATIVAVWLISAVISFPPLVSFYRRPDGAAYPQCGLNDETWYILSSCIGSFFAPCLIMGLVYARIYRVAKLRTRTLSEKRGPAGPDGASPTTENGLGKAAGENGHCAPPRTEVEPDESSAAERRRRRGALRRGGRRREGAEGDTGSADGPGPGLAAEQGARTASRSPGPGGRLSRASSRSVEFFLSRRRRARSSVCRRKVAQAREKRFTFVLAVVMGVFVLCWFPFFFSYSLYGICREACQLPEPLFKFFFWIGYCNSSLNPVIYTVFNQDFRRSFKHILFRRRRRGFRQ
T2 sequence (P19328 whole entry): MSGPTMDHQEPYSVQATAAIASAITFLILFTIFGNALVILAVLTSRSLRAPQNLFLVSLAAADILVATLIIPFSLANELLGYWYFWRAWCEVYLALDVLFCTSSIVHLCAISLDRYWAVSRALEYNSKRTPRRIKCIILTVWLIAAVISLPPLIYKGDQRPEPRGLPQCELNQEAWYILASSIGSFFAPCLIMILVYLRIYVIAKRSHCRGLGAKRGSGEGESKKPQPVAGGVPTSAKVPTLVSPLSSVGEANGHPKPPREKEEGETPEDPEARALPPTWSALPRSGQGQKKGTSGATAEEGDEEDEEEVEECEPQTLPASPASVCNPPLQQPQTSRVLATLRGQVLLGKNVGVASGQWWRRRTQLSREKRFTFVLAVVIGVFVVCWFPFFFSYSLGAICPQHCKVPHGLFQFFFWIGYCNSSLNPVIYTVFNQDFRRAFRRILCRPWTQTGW
T2 sequence (P22909 whole entry): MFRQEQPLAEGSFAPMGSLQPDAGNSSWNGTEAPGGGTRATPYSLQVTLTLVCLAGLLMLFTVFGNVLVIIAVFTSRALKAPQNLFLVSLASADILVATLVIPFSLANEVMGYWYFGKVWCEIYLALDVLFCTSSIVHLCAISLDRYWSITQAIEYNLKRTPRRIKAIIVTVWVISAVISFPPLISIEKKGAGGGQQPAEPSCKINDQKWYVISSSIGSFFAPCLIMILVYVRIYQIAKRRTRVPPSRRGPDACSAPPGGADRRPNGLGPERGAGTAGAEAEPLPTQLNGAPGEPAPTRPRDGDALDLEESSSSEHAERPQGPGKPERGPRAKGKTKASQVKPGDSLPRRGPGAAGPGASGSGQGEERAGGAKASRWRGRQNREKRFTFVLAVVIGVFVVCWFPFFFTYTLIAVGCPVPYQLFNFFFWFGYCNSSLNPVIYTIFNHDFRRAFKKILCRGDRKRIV

## C=Cc1cccn1N(C)c1ccncc1
Acetylcholinesterase
  IC50: > 100 µM
[1]
  IC50: 0.21 µM

Source: ChEMBL document CHEMBL1129671, “Substituted (pyrroloamino)pyridines: potential agents for the treatment of Alzheimer's disease” (J Med Chem, 1996)
